The values below come from patent US20190282673A1, “STAPHTAME ACTIVITY ON BIOFILMS” (priority 2016, published 2019).

One experiment deals with S. epidermidis biofilms. Nature of the experiment: MBIC and checkerboard synergy on preformed biofilm (MTT assay). It counts as cell-based, Staphylococcus epidermidis. Particulars: for MBIC (drug alone): 6 hr treatment; for MBIC: S. epidermidis ATCC 12228 biofilm. The method, then: The ability of P128 to inhibit growth of S. aureus in a preformed biofilm was measured by determining minimum biofilm inhibition concentration (MBIC), defined as minimum concentration showing growth inhibition in a MTT based assay. Since P128 kills Staphylococcus cultures rapidly, it was expected to show a rapid effect on biofilms as well. Paul, et al. (2011) “A novel bacteriophage Tail-Associated Muralytic Enzyme (TAME) from Phage K and its development into a potent antistaphylococcal protein” BMC Microbiol. 11:226.
Culture conditions were optimized for reproducibly obtaining a robust biofilm of S. epidermidis in 96 well microtitre plates. For this purpose, biofilms were generated in microtiter plates and the surface-adhered cultures remaining after washing off the planktonic cells were analyzed at the end of 72 h by MTT dye assay. Briefly, an overnight-grown culture of the S. epidermidis strain was diluted 1:40 in LB broth. 200 μL of diluted culture was aliquoted into microtiter plate wells. Microplates were placed in a shaker-incubator set to 37° C., and 100 rpm for 24 h followed by 48 h incubation under static conditions at 37° C. The contents of wells were aspirated and discarded. Wells were washed twice with 1×PBS and the presence of biofilm in the wells at the end of 72-hour period was determined by metabolic dye-reduction assay method using MTT (3-(4,5-dimethylthiazol-2-yl)-2,5-diphenyltetrazolium bromide; Himedia). In this assay, live cells reduce the dye leading to color formation which can be read at 570 nm and the intensity of color can be correlated to number of live cells.
[…] LB supplemented with 50 μg/mL Ca^++ was used for daptomycin treatment wells. The contents of the well was aspirated out and discarded. The biofilm adhered to the wells was quantified by MTT assay as described above. In each experiment, in addition to the combination MBIC, the MBIC of each drug was also determined individually. The fractional MBIC concentrations were determined by MTT dye method as described above. The FICI and synergy was calculated.

For experiment [1], the system named is S. aureus MW2 biofilms on catheters. Put plainly: Preformed biofilms on catheters, safranin staining and SEM. The following applies: 18 hrs; P128 8 μg/mL (1×MIC); vancomycin 90 μg/mL (90×MIC); daptomycin 10 μg/mL (10×MIC). The format is cell-based, Staphylococcus aureus. The method, then: To study the efficacy of P128 on biofilms on catheters, an overnight-grown culture of S. aureus MW2 was diluted 1:40 in TSB containing 5% rabbit plasma. Catheter (JMS Infusion set) pieces of 1-2 cm size were cut, slit into two halves and added to the culture. The cultures with catheter pieces were incubated at 37° C. with shaking at 100 rpm for 24 h. Post incubation, the catheters were removed and rinsed twice in PBS to remove the adhering planktonic cells. The biofilms on catheters were challenged with 8, 4, 2 and 1 μg/mL of P128 or 15, 30 and 90 μg/mL of vancomycin or 10 μg/mL of daptomycin (with 50 μg/mL CaCl2) by transferring the catheter pieces into tubes containing the drugs. The tubes were incubated at 37° C. under static conditions for 18 hrs. The catheters were then removed from the tubes, rinsed once in PBS, and immersed in 0.1% safranin for 5 min. The stained catheters were washed once in PBS and allowed to dry. After drying, samples were fixed on aluminum stubs with double sided carbon adhesive tape, coated with 5-7 nm thickness gold using a sputter-coating system (Quorum Technologies; Q150T) and examined by SEM (Carl Zeiss; Neon 40) for the presence of biofilm structures.

For experiment [2], the system named is S. epidermidis B9470 biofilms on catheters. The experiment is described as above. The format is cell-based, Staphylococcus epidermidis. The following applies: 18 hrs; P128 8 μg/mL (1×MIC); vancomycin 30 μg/mL (30×MIC). The method, then: In order to simulate the in vivo conditions for biofilm formation in device associated infections, S. epidermidis B9470 was allowed to form biofilms on the surface of catheters. An overnight-grown culture was diluted 1:40 in TSB containing 4% sodium chloride. Catheter (JMS Infusion set) pieces of 1-2 cm size were cut, slit into two halves and added to the culture. The cultures with catheter pieces were incubated at 37° C. with shaking at 100 rpm for 42 h. Post incubation, the catheters were removed and rinsed twice in PBS to remove the adhering planktonic cells. The biofilms on catheters were challenged with 8 μg/mL of P128 or 30 μg/mL of vancomycin by transferring the catheter pieces into tubes containing the drugs. The tubes were incubated at 37° C. under static conditions for 18 hrs. The catheters were then removed from the tubes, rinsed once in PBS, and immersed in 0.1% safranin [a dye that stains cell wall of bacteria] for 5 min. The stained catheters were washed once in PBS and allowed to dry. After drying, samples were fixed on aluminum stubs with double sided carbon adhesive tape, coated with 5-7 nm thickness gold using a sputter-coating system (Quorum Technologies; Q150T) and examined by SEM (Carl Zeiss. Neon 40) for the presence of biofilm structures.

Experiment [3] has as its system S. aureus BK18 and B9377 persisters. Put plainly: P128 and antibiotic activity on persisters (CFU). Particulars: for CFU/mL after treatment of persisters: 1×MIC, P128 1 h, antibiotics 6 h. It counts as cell-based, Staphylococcus aureus. The method, then:
(§1) Persisters were generated as above were treated with P128 and antibiotics (Ref: Gutiérrez, et al. (2014) Effective Removal of Staphylococcal Biofilms by the Endolysin LysH5 PLoS One 9(9): e107307).
(§2) To 450 μL aliquots, P128. Daptomycin and Vancomycin (in saline) were added (individually) each at 1×MIC Conc., and another 450 μL aliquot was taken as control. The persister samples treated with P128 were incubated for 1 h, 37° C., and 200 rpm and those treated with antibiotics were incubated for 6 h, 37° C., and 200 rpm. After incubation samples were serially log diluted and plated.

Experiment [4] deals with S. epidermidis B9470 persisters. Nature of the experiment: P128 and antibiotic activity on persisters (CFU). The format is cell-based, Staphylococcus epidermidis. The following applies: 1×MIC, P128 1 h, antibiotics 6 h. As for the experimental part: as §1, §2
The subject of experiment [5] is MRSA MW2 biofilm on catheter. Nature of the experiment: In vivo biofilm on catheter implanted subcutaneously in neutropenic mice.
Experimental: Eight-nine week old female BALB/c mice 25 g were rendered neutropenic with cyclophosphamide and were operated under ketamine-xylazine anesthesia. A 1-cm incision was made in the dorsal neck surface by aseptic technique and subcutaneous pouch was created. Catheter segments of 1 cm length pre-incubated with MRSA MW2 suspension (6×10^3 CFUs/mL) for 4 hrs, were placed in the subcutaneous space and the wounds were closed with suture thereafter. As uninfected control, one group of mice were surgically operated and a sterile catheter segment was placed in the cavity. At 24 hours post-catheter implantation, mice were treated with P128 (800 μg per animal, subcutaneously) or with the placebo (saline). Treatments were given thrice a day at 2 hr intervals for three days and 1 hr after the last treatment, the catheters were removed, biofilms were harvested and CFUs recovered were plated on culture media and enumerated. Catheters from a subset of animals were stained with 0.1% safranin, (which stains the bacteria) for 5 min.
For evaluation of synergy with daptomycin, mouse model of biofilm described above was used with few modifications. Eight-nine week old female BALB/c mice 25 g were rendered neutropenic with cyclophosphamide and were operated under ketamine-xylazine anesthesia. A 1-cm incision was made in the dorsal neck surface by aseptic technique and subcutaneous pouch was created. Catheter segments measuring 1 cm were placed in the subcutaneous space, and the wounds closed with suture. At 72 hours post-implantation. MRSA MW2 bacterial inoculum (2.1×10^7 CFU per animal) was injected subcutaneously onto the catheter. At 24 hrs post-challenge, animals were treated with either P128 (800 μg per animal, subcutaneous), or daptomycin (12.5 mg/kg, subcutaneous) or a combination of both. Daptomycin was given once every day for three days whereas P128 was administered thrice a day at 2 hr interval for three days. 1 hr after the last treatment, animals were euthanized and catheters were collected and recovered CFUs were enumerated.
Biofilms were also visualized by staining the catheters with 0.1% safranin.
The mark [6] stands for this setting: S. epidermidis B9470 72 h preformed biofilm.
The mark [7] stands for this setting: S. epidermidis B9471 72 h preformed biofilm.
[8] abbreviates: S. epidermidis B9472 72 h preformed biofilm.
[9] abbreviates: Table VB2: Daptomycin 12.5 mg/kg sc 1 dose per day for 3 days, P128 800 μg per dose sc 3 doses/day for 3 days, or both.
[10] abbreviates: P128 800 μg per animal sc, thrice a day for three days.
[11] abbreviates: Table VB1: pre-colonised catheter, P128 800 μg per dose sc, 3 doses/day for 3 days.

Values joined by “and” are separate entries in the source; they are usually repeats but may differ in a detail not shown here. Identical values can stand only once.

`CC(=O)NC[C@H]1CN(c2ccc(N3CCOCC3)c(F)c2)C(=O)O1` [Linezolid, linezolid]: the “MBIC (drug alone)” value with S. epidermidis biofilms (setting [6]) was determined as 7.8 µg/mL; in the experiment with S. epidermidis biofilms (setting [7]), 250 µg/mL; in the experiment with S. epidermidis biofilms (setting [8]) it was 250 µg/mL.
Consider `CN[C@H](CC(C)C)C(=O)N[C@H]1C(=O)N[C@@H](CC(N)=O)C(=O)N[C@H]2C(=O)N[C@H]3C(=O)N[C@H](C(=O)N[C@H](C(=O)O)c4cc(O)cc(O)c4-c4cc3ccc4O)[C@H](O)c3ccc(c(Cl)c3)Oc3cc2cc(c3O[C@@H]2O[C@H](CO)[C@@H](O)[C@H](O)[C@H]2O[C@H]2C[C@](C)(N)[C@H](O)[C@H](C)O2)Oc2ccc(cc2Cl)[C@H]1O` [Vancomycin, vancomycin], for which the “MBIC (drug alone)” value is 7.8 µg/mL in the experiment with S. epidermidis biofilms (setting [6]), 250 µg/mL with S. epidermidis biofilms (setting [7]) and 250 µg/mL with S. epidermidis biofilms (setting [8]). In addition, the “Effect on catheter biofilm (safranin/SEM)” value (from here on “Effect … (safranin/SEM)”) in experiment [1] and in experiment [2] was “minimal effect” each time. Further, the “CFU/mL after treatment of persisters” value is reported as 2.6 × 10^2 CFU/mL in experiment [3] (B9377 Daptomycin persisters); 4 × 10^5 CFU/mL in experiment [3] (B9377 Vancomycin persisters); 1 × 10^1 CFU/mL in experiment [3] (BK18 Daptomycin persisters); 8 × 10^5 CFU/mL in experiment [3] (BK18 Vancomycin persisters); 5 × 10^5 CFU/mL in experiment [4] (B9470 Daptomycin persisters); 1.5 × 10^3 CFU/mL in experiment [4] (B9470 Vancomycin persisters).
As to `CCCCCCCCCC(=O)N[C@@H](Cc1c[nH]c2ccccc12)C(=O)N[C@H](CC(N)=O)C(=O)N[C@@H](CC(=O)O)C(=O)N[C@@H]1C(=O)NCC(=O)N[C@@H](CCCN)C(=O)N[C@@H](CC(=O)O)C(=O)N[C@H](C)C(=O)N[C@@H](CC(=O)O)C(=O)NCC(=O)N[C@H](CO)C(=O)N[C@@H]([C@H](C)CC(=O)O)C(=O)N[C@@H](CC(=O)c2ccccc2N)C(=O)O[C@@H]1C` [Daptomycin, daptomycin], the “MBIC (drug alone)” value came to 15.6 µg/mL with S. epidermidis biofilms (setting [6]), 15.6 µg/mL in the experiment with S. epidermidis biofilms (setting [7]) and 7.8 µg/mL in the experiment on S. epidermidis biofilms (setting [8]). Moreover, in experiment [1], the “Effect … (safranin/SEM)” value is “significant reduction in biofilm mass”. Moreover, the “CFU/mL after treatment of persisters” value in experiment [3] (B9377 Daptomycin persisters) was 1 × 10^2 CFU/mL; in experiment [3] (B9377 Vancomycin persisters) it was 6 × 10^5 CFU/mL; in experiment [3] (BK18 Daptomycin persisters), 1 × 10^1 CFU/mL; in experiment [3] (BK18 Vancomycin persisters) it was 7.5 × 10^5 CFU/mL; in experiment [4] (B9470 Daptomycin persisters), 1.3 × 10^6 CFU/mL; in experiment [4] (B9470 Vancomycin persisters), 2.1 × 10^2 CFU/mL. Further, the “CFU recovered from catheter biofilm, individual animals” value in experiment [5] (setting [9]) is 4.9 CFU (Log10)/ml and 2.6 CFU (Log10)/ml and 3.0 CFU (Log10)/ml and 2.7 CFU (Log10)/ml.

B1: P128: anti-staphylococcal chimeric protein: phage tail associated muralytic enzyme (TAME) cell wall-degrading region plus staphylococcus-specific binding region; SEQ ID NO: 1 (protein)
chain: MSLDSLKKYNGKLPKHDPSFVQPGNRHYKYQCTWYAYNRRGQLGIPVPLWGDAADWIGGAKGAGYGVGRTPKQGACVIWQRGVQGGSPQYGHVAFVEKVLDGGKKIFISEHNYATPNGYGTRTIDMSSAIGKNAQFIYDKKLETPNTGWKTNKYGTLYKSESASFTPNTDIITRTTGPFRSMPQSGVLKAGQTIHYDEVMKQDGHVWVGYTGNSGQRIYLPVRTWNKSTNTLGVLWGTIK
modifications: P128 chimera
On to B1, for which the MBIC was 7.8 µg/mL in the experiment with S. epidermidis biofilms (4 h), 7.8 µg/mL in the experiment with S. epidermidis biofilms (6 h), 7.8 µg/mL with S. epidermidis biofilms (8 h) and more than 1000 µg/mL with S. epidermidis biofilms (24 h). In addition, the “MBIC (drug alone)” value in the experiment on S. epidermidis biofilms (setting [6]) is 32 µg/mL and 16 µg/mL; in the experiment with S. epidermidis biofilms (setting [7]) it was 32 µg/mL; with S. epidermidis biofilms (setting [8]) it was 32 µg/mL. Moreover, the “Effect … (safranin/SEM)” value in experiment [1] and in experiment [2] was “eradication of the biofilm” throughout. Besides, the “CFU/mL after treatment of persisters” value in experiment [3] (B9377 Daptomycin persisters) is 1 × 10^1 CFU/mL; in experiment [3] (B9377 Vancomycin persisters), 2.5 × 10^1 CFU/mL; in experiment [3] (BK18 Daptomycin persisters), 1 × 10^1 CFU/mL; in experiment [3] (BK18 Vancomycin persisters) it was 5 × 10^1 CFU/mL; in experiment [4] (B9470 Daptomycin persisters), 2.5 × 10^2 CFU/mL; in experiment [4] (B9470 Vancomycin persisters) it was 7 × 10^1 CFU/mL. The “Drop in CFU” value in experiment [3] (Vancomycin persisters (1×10^6 CFU/mL) of S. aureus BK18 and B9377 treated with P128) was approximately 5 log. The CFU recovered in experiment [3] (daptomycin persisters of S. aureus treated with P128) is less than 10 CFU/mL. Besides, in experiment [5] (setting [10]), the “Reduction in CFUs compared to the control group” value is reported as “greater than 1 log”. For the same molecule, the “Safranin staining of catheters” value in experiment [5] (setting [10]) is given as “eradication of biofilm”. Also, the “Avg. CFU recovered from catheter biofilm” value in experiment [5] (setting [11]) was 2.8 CFU Log(10)/ml. Moreover, the “CFU recovered from catheter biofilm, individual animals” value in experiment [5] (setting [11]) is 4.15 CFU (Log10)/ml and 3.12 CFU (Log10)/ml and 1.00 CFU (Log10)/ml and Nil; in experiment [5] (setting [9]), 2.5 CFU (Log10)/ml and 2.0 CFU (Log10)/ml and 2.7 CFU (Log10)/ml.
